Experiment [1] deals with T1, Integrin alpha-V/beta-3 (Homo sapiens, UniProt P05106+P06756). In words: Inhibition of alphavbeta3 integrin-mediated capillary tube formation in HUVEC after 16 hrs by matrigel assay. It is filed as protein-complex assay.
Experiment [2] addresses T1, Integrin alpha-V/beta-3. In words: Inhibition of alphavbeta3 integrin-mediated cell adhesion in HUVEC after 15 mins by matrigel assay. It is filed as protein-complex assay.
Experiment [3] deals with Integrin alpha-IIb/beta-3 (Homo sapiens, UniProt P05106+P08514). In words: Inhibition of fibrinogen binding to human alpha2b/beta3 integrin after 1 hr by ELISA. It counts as protein-complex assay.
Integrin alpha-IIb/beta-3, sequence (P05106 27-788 limits assumed): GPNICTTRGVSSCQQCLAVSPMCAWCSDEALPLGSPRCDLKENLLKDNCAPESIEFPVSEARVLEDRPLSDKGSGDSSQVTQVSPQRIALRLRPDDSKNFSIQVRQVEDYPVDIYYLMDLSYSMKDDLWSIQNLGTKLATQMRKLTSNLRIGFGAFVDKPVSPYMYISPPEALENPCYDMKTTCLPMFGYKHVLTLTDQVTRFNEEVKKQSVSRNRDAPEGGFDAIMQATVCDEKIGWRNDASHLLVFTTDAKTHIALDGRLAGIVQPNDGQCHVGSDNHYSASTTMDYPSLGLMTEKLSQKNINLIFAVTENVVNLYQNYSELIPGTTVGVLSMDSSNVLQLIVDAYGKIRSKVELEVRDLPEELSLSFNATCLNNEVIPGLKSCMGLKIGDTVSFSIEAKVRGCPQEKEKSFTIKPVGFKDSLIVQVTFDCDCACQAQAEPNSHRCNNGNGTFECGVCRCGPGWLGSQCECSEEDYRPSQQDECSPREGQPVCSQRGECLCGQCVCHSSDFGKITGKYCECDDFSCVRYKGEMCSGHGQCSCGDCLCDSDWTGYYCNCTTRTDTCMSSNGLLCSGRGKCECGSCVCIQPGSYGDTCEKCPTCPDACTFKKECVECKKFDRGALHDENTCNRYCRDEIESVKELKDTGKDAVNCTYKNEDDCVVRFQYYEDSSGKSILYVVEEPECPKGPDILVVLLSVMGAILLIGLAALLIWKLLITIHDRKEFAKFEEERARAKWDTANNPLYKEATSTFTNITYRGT
Integrin alpha-IIb/beta-3, sequence (P08514 32-887 limits assumed): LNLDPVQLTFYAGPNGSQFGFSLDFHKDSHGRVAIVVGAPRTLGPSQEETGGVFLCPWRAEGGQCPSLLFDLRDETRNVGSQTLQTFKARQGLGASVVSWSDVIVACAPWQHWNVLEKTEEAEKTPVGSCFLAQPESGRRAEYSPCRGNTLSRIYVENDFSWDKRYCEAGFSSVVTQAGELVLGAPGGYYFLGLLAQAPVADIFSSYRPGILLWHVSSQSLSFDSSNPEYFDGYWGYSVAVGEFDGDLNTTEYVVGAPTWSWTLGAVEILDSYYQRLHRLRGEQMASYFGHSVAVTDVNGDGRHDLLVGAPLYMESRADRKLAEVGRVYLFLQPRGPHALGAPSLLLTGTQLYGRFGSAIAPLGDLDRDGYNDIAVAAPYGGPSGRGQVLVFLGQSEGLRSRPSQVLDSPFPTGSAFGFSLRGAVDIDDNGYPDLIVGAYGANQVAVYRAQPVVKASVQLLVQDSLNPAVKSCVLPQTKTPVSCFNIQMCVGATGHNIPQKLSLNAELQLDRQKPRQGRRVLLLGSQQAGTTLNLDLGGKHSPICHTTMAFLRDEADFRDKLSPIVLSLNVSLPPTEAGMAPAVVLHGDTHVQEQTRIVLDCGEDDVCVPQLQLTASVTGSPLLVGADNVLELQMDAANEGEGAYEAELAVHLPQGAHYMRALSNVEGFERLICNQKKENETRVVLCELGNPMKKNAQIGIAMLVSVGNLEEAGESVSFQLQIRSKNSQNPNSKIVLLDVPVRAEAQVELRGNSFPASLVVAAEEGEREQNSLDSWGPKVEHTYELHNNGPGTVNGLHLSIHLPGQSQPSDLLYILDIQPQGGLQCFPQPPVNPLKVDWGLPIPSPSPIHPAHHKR
Integrin alpha-IIb/beta-3, sequence (P08514 891-1039 limits assumed): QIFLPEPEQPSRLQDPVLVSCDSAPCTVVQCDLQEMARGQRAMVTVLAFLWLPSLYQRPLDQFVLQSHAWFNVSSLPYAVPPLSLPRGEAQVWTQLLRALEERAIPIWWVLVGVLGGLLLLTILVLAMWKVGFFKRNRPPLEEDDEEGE
A further experiment concerns the target Integrin alpha-V/beta-5 (Homo sapiens, UniProt P06756+P18084). In words: Inhibition of vitronectin binding to human alphaVbeta5 integrin after 1 hr by ELISA. It counts as protein-complex assay.
Experiment [4] deals with T1, Integrin alpha-V/beta-3. In words: Inhibition of vitronectin binding to human alphaVbeta3 integrin after 2 hrs by ELISA. It counts as protein-complex assay.
Target sequence in this assay (P05106 27-788 limits assumed): as the sequence (P05106 27-788 limits assumed) above
Target sequence in this assay (P06756 31-889 limits assumed): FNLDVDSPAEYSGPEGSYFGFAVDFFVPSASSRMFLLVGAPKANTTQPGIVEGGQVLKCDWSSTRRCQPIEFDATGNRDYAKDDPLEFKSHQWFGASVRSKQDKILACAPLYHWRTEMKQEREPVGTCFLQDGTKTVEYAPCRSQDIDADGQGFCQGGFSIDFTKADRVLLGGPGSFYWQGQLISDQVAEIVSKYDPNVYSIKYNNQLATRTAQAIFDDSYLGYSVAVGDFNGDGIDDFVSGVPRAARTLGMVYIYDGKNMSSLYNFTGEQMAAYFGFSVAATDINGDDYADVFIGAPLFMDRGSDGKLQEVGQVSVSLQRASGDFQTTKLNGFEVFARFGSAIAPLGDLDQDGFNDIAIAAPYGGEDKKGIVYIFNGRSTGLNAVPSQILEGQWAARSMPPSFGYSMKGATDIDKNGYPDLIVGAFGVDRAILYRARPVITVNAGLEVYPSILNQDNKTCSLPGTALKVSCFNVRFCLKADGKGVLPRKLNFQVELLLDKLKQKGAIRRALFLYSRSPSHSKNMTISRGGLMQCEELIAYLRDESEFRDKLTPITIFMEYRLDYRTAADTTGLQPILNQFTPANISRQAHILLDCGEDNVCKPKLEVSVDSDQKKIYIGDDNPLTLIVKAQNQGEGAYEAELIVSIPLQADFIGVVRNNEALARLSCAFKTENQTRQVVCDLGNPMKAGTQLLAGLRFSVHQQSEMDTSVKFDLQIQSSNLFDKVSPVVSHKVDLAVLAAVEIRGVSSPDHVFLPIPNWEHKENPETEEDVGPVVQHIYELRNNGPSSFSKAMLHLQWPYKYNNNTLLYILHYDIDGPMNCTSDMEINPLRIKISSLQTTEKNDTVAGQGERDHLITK
Target sequence in this assay (P06756 891-1048 limits assumed): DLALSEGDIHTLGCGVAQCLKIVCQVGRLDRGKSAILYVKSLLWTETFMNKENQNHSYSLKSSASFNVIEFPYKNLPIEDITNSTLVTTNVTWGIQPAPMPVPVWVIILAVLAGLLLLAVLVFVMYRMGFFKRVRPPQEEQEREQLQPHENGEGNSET
For the next experiment, the species on record is Homo sapiens. In words: Selectivity ratio IC50 for human alpha2b/beta3 integrin to IC50 for human alphaVbeta3 integrin.
In another experiment the target is Integrin alpha-5/beta-1 (Homo sapiens, UniProt P05556+P08648). In words: Inhibition of fibronectin binding to human alpha5beta1 integrin after 1 hr by ELISA. It counts as protein-complex assay.

Peptide text beside a SMILES is read from it.

Integrin alpha-V/beta-5, sequence (P06756 31-889 limits assumed): as the sequence (P06756 31-889 limits assumed) above
Integrin alpha-V/beta-5, sequence (P06756 891-1048 limits assumed): as the sequence (P06756 891-1048 limits assumed) above
Integrin alpha-V/beta-5, sequence (P18084 24-799 limits assumed): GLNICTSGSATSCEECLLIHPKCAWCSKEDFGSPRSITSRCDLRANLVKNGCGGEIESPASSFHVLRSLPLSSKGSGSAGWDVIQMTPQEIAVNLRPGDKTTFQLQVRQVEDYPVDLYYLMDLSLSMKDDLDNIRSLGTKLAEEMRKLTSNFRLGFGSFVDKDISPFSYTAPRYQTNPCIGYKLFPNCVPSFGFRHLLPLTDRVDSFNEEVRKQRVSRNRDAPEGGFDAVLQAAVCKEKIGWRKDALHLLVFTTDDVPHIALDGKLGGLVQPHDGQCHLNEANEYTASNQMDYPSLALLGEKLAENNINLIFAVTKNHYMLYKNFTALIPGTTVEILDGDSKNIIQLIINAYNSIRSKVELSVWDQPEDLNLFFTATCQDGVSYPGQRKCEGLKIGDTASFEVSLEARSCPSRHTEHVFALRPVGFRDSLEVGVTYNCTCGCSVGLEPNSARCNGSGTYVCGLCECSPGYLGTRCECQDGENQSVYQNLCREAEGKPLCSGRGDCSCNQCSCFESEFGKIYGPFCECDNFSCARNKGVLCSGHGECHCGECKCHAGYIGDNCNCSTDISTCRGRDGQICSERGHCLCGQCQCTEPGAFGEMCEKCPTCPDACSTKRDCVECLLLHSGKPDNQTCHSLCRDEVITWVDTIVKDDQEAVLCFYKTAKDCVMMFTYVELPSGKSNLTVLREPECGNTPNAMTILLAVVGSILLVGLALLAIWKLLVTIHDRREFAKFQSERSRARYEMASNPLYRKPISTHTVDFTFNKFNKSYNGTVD

With `NC(N)=NCCC[C@H](N)C(=O)NCC(=O)N[C@@H](CC(=O)O)C(=O)O`, the inhibition result on Integrin alpha-V/beta-3 [1] and on Integrin alpha-V/beta-3 [2] was “Dose-dependent effect” throughout.

Regarding `N=C(N)NCCC[C@H](N)C(=O)NCC(=O)N[C@@H](CC(=O)O)C(=O)O`, the values for the IC50 (in experiment [3]; at Integrin alpha-V/beta-5; at Integrin alpha-V/beta-3 [4]) were 130 µM, 38 µM and 12 µM, respectively.

Turning to `N=C(N)NCCC[C@H](N)C(=O)NCC(=O)N[C@@H](CC(=O)O)C(=O)N[C@@H](Cc1ccccc1)C(=O)O` (H-RGDF-OH), the Ratio IC50 in the experiment filed under Homo sapiens was 177. The inhibition result at Integrin alpha-V/beta-3 [1] and on Integrin alpha-V/beta-3 [2] was “Dose-dependent effect” throughout. For the same molecule, the 50% inhibitory concentration (IC50) on Integrin alpha-5/beta-1 is 1550 µM; in experiment [3] it was 725 µM; on Integrin alpha-V/beta-5 it was 92 µM; at Integrin alpha-V/beta-3 [4], 4.1 µM.

Source of the values: ChEMBL document CHEMBL3297736, “Rational improvement of the affinity and selectivity of integrin binding of grafted lasso peptides” (J Med Chem, 2014).
